Publication doi:10.1101/041947v2 (biorxiv, 2016)

System: A549
Assay: cells
Details: Homo sapiens, A549, read-out: IC50 nM

IC50: 4.2 nM
SMILES: CC[C@]1(O)C[C@@H]2CN(CCc3c([nH]c4ccccc34)[C@@](C(=O)OC)(c3cc4c(cc3OC)N(C)[C@H]3[C@@](O)(C(=O)OC)[C@H](OC(C)=O)[C@]5(CC)C=CCN6CC[C@]43[C@@H]65)C2)C1 [Vinblastine]
